Data reported in patent US12227577B2, “Combination of a PD-1 antagonist, an ATR inhibitor and a platinating agent for the treatment of cancer” (Merck Patent GMBH, priority 2018, dated 2025).
Values joined by “and” are separate entries in the source; they are usually repeats but may differ in a detail not shown here. Identical values can stand only once.

Legend:
[1] = tested on: MB49 syngeneic tumor model; test: Triple combination treatment in murine subcutaneous MB49 tumor model; assay type: in vivo, C57BL/6 female mice; conditions: for Median survival: Kaplan-Meier, sacrificed when tumor volume reached 2000 mm^3; for Tumor Size (mm^3) at day 18: day 18, Mean ± SEM, Avelumab 400 μg i.v. days 3, 6, 9, Carboplatin 60 mg/kg i.p., ATRi 1 60 mg/kg p.o. days 0, 7; for TGI % (%): day 18 after start of treatment, vs control group; for tumor growth inhibition effect: in words, compared to the control group
Description: C57BL/6 female mice at 8-9 weeks of age where subcutaneously injected into the right flank with 0.5×10^6 of viable MB49 tumor cells in 0.1 mL PBS. The animals were randomized and therapy initiated when the tumors reached a volume of around 100 mm^3 (day 0 of treatment). Each group consisted of 10 tumor-bearing mice. The tested compounds were administered to the mice according to the predetermined regimen shown in the experimental design Table 14:
The tumor size was then used for calculation of T/C values.
The body weight was also measured twice a week. Mice were sacrificed when the tumor volume reached 2000 mm^3.
One-way analysis of variance (ANOVA) with Bonferroni's Multiple Comparisons Test, two-way ANOVA, unpaired t-test and Log-rank test from the GraphPad Prism software package were used (Prism 5 for Windows, Version 5.0, GraphPad Software Inc., San Diego, CA). p<0.05 was considered to be statistically significant.

[2] = tested on: MC38 colorectal cancer syngeneic model; test: Experiment 2B: triple combination of Avelumab, Carboplatin and ATRi 1 in subcutaneous MC38 model; assay type: in vivo, C57BL/6 mice; conditions: Exp. 2B; for Tumor-free mice on day 66: 10 mice per group; for Median survival: Kaplan-Meier, survival data up to day 66, euthanized at tumor burden of 3,000 mm^3; for TGI % (%) / T/C (%) / anti-tumor activity: day 17; for T/C (%): treated vs control group mean volume; for Tumor Size (mm^3) at day 17: day 17 after start of treatment, Mean ± SEM, Avelumab 400 μg i.v. days 3, 6, 9, Carboplatin 60 mg/kg i.p., ATRi 1 60 mg/kg p.o. days 0, 7; for anti-tumor activity: in words
Description: The MC38 tumor cells were maintained in vitro as a monolayer culture in DMEM+2 mM glutamine supplemented with 10% heat inactivated fetal bovine serum, 100 U/ml penicillin and 100 μg/ml streptomycin at 37° C. in an atmosphere of 5% CO2 in air. The tumor cells were routinely subcultured twice weekly by trypsin-EDTA treatment. The cells growing in an exponential growth phase were harvested and counted for tumor inoculation.
Each mouse was inoculated subcutaneously at the right upper flank with MC38 cells (3×10^5) in 0.1 mL of PBS for tumor development. Treatments were started on day 7 after tumor inoculation when the average tumor size reached approximately 80 mm^3. The animals were assigned into groups using an Excel-based randomization software performing stratified randomization based upon their tumor volumes. Each group consisted of 10 tumor-bearing mice. The tested compounds were administered to the mice according to the predetermined regimen shown in the experimental design Table 2 and Table 6, respectively.
(§1) The major endpoint was to see if the tumor growth could be delayed or mice could be cured. Tumor size was measured twice weekly in two dimensions using a caliper, and the volume was expressed in mm^3 using the formula: V=0.5 a×b^2 where a and b are the long and short diameters of the tumor, respectively. The tumor size was then used for calculation of T/C values. The T/C value (in percent) is an indication of antitumor effectiveness; T and C are the mean volumes of the treated and control groups, respectively, on a given day. TGI was calculated for each group using the formula: TGI (%)=[1−(Ti−T0)/(Vi−V0)]×100; Ti is the average tumor volume of a treatment group on a given day, TO is the average tumor volume of the treatment group on the day of treatment start, Vi is the average tumor volume of the vehicle control group on the same day with Ti, and V0 is the average tumor volume of the vehicle group on the day of treatment start. Animals were euthanized as they reached tumor burden of 3,000 mm^3 per IACUC regulations and the time to reach this endpoint was used for Kaplan-Meier survival analysis.
(§2) A one-way ANOVA was performed, and when a significant F-statistics (a ratio of treatment variance to the error variance) was obtained, comparisons between groups were carried out with Games-Howell test. All data were analyzed using SPSS 17.0. p<0.05 was considered to be statistically significant.
(§3) Statistical analysis of difference in survival rate among the groups were conducted on the survival data up to day 66 after the start of treatment. Kaplan-Meier test was performed, all data were analyzed using GraphPad Prism 6.0., comparisons between groups were carried out with Log-rank test, p<0.05 was considered to be statistically significant.
The anti-tumor efficacy of the triple combination avelumab, carboplatin and ATRi 1 was tested according to the above methods and with the experimental design outlined in Table 6.

[3] = 10 mg/kg dose; cited from earlier work
[4] = tested on: MC38 colorectal cancer syngeneic model; test: Experiment 2A: triple combination of Avelumab, Cisplatin and ATRi 1 in subcutaneous MC38 model; assay type: in vivo, C57BL/6 mice; conditions: Exp. 2A; for Tumor-free mice on day 66: 10 mice per group; for Median survival: Kaplan-Meier, survival data up to day 66, euthanized at tumor burden of 3,000 mm^3; for TGI % (%) / T/C (%) / anti-tumor activity: day 17; for T/C (%): treated vs control group mean volume; for anti-tumor activity: in words
Excerpt: The objective of this study was to evaluate the in vivo anti-tumor efficacy of a triple combination treatment comprising avelumab, a platinating agent (cisplatin or carboplatin) and ATRi 1 (Compound 1) in the subcutaneous MC38 colorectal cancer syngeneic model in C57BL/6 mice.
The tumor cells were routinely subcultured twice weekly by trypsin-EDTA treatment.
Treatments were started on day 7 after tumor inoculation when the average tumor size reached approximately 80 mm^3. […] Each group consisted of 10 tumor-bearing mice.
as §1
as §2, with “Statistical analysis of difference in the tumor volume among the groups were conducted on the data obtained at the best therapeutic time point on day 17 after the start of treatment). A one-way” for “A one-way”
as §3
The anti-tumor efficacy of the triple combination avelumab, cisplatin and ATRi 1 was tested according to the above methods and with the experimental design outlined in Table 2.

## N.N.O=C([O-])C1(C(=O)[O-])CCC1.[Pt+2] [Carboplatin, reference compound]
[1]
  Median survival: 21 days
  Tumor Size (mm^3) at day 18: 1814 ± 212 mm^3
  TGI % (%): 19.9%
  tumor growth inhibition effect: did not show any significant tumor growth inhibition effect
[2]
  Tumor-free mice on day 66: 0/10
  Median survival: 28 days
  TGI % (%): 55.5%
  T/C (%): 47.6%
  Tumor Size (mm^3) at day 17: 671 mm^3 and 671 ± 160 mm^3
  anti-tumor activity: minor anti-tumor activity

## Avelumab: fully human monoclonal antibody of the immunoglobulin (Ig) G1 isotype; selectively binds to PD-L1
[3]
  receptor occupancy: excellent
  tolerability: well tolerated
[4]
  Tumor-free mice on day 66: 0/10
  Median survival: 26 days
  TGI % (%): 41.8%
  T/C (%): 60.2%
  anti-tumor activity: minor anti-tumor activity
[1]
  Median survival: 22.5 days
  Tumor Size (mm^3) at day 18: 1378 ± 175 mm^3
  TGI % (%): 39.1%
  tumor growth inhibition effect: moderate tumor growth inhibition effect
[2]
  Tumor-free mice on day 66: 0/10
  Median survival: 31 days
  TGI % (%): 47.8%
  T/C (%): 54.9%
  Tumor Size (mm^3) at day 17: 774 mm^3 and 774 ± 153 mm^3
  anti-tumor activity: minor anti-tumor activity

## CNCc1ccc(-c2cc(-c3nc(-c4ccc(S(=O)(=O)C(C)C)cc4)cnc3N)on2)cc1 [ATRi 1, 3-[3-(4-Methylaminomethyl-phenyl)-isoxazol-5-yl]-5-[4-(propane-2-sulfonyl)-phenyl]-pyrazin-2-ylamine]
[4]
  Tumor-free mice on day 66: 0/10
  Median survival: 24 days
  TGI % (%): 11.6%
  T/C (%): 88.9%
  anti-tumor activity: minor anti-tumor activity
[1]
  Median survival: 21 days
  Tumor Size (mm^3) at day 18: 2087 ± 333 mm^3
  TGI % (%): 7.8%
  tumor growth inhibition effect: did not show any significant tumor growth inhibition effect
[2]
  Tumor-free mice on day 66: 0/10
  Median survival: 21 days
  TGI % (%): −31.2%
  T/C (%): 129.5%
  anti-tumor activity: minor anti-tumor activity

## N.N.[Cl][Pt][Cl] [Cisplatin, reference compound]
[4]
  Tumor-free mice on day 66: 0/10
  Median survival: 28 days
  TGI % (%): 38.7%
  T/C (%): 63.1%
  anti-tumor activity: minor anti-tumor activity
